# The CheMixHub viscosity set
# Values joined by “and” are separate entries in the source; they are usually repeats but may differ in a detail not shown here. Identical values can stand only once. ± gives the uncertainty stated by the source.
structure (smiles),measurement,setting,value
CCCCn1cc[n+](C)c1.O=S(=O)([N-]S(=O)(=O)C(F)(F)F)C(F)(F)F,viscosity,"293.15 K, 100 kPa",61.47 ± 2.7 mPa·s
same,viscosity,"293.15 K, 101 kPa",64.6 ± 1.3 mPa·s and 62.91 ± 2.6 mPa·s and 65.11 ± 0.61 mPa·s
same,viscosity,"293.15 K, 101.3 kPa",63.1 ± 1.3 mPa·s
same,viscosity,"293.3 K, 100 kPa",62.66 ± 4 mPa·s
same,viscosity,"293.61 K, 100 kPa",61.82 ± 3.9 mPa·s
same,viscosity,"293.91 K, 100 kPa",60.98 ± 3.8 mPa·s
same,viscosity,"294.21 K, 100 kPa",60.17 ± 3.8 mPa·s
same,viscosity,"294.52 K, 100 kPa",59.36 ± 3.7 mPa·s
same,viscosity,"294.82 K, 100 kPa",58.58 ± 3.6 mPa·s
same,viscosity,"295.12 K, 100 kPa",57.8 ± 3.6 mPa·s
same,viscosity,"295.42 K, 100 kPa",57.04 ± 3.5 mPa·s
same,viscosity,"295.73 K, 100 kPa",56.29 ± 3.4 mPa·s
same,viscosity,"296.03 K, 100 kPa",55.56 ± 3.4 mPa·s
same,viscosity,"296.33 K, 100 kPa",54.84 ± 3.3 mPa·s
same,viscosity,"296.64 K, 100 kPa",54.13 ± 3.2 mPa·s
same,viscosity,"296.94 K, 100 kPa",53.43 ± 3.2 mPa·s
same,viscosity,"297.24 K, 100 kPa",52.75 ± 3.1 mPa·s
same,viscosity,"297.55 K, 100 kPa",52.07 ± 3.1 mPa·s
same,viscosity,"297.85 K, 100 kPa",51.41 ± 3 mPa·s
same,viscosity,"298 K, 100 kPa",49.74 ± 1.3 mPa·s
same,viscosity,"298 K, 101 kPa",50.4 ± 1.9 mPa·s
same,viscosity,"298.15 K, 101 kPa",50.29 ± 2.1 mPa·s and 51.73 ± 0.46 mPa·s and 45.3 ± 1.1 mPa·s
same,viscosity,"298.15 K, 101.3 kPa",50.53 ± 1 mPa·s
same,viscosity,"298.45 K, 100 kPa",50.12 ± 2.9 mPa·s
same,viscosity,"298.76 K, 100 kPa",49.49 ± 3.1 mPa·s
same,viscosity,"299.06 K, 100 kPa",48.87 ± 3 mPa·s
same,viscosity,"299.36 K, 100 kPa",48.26 ± 3 mPa·s
same,viscosity,"299.67 K, 100 kPa",47.66 ± 2.9 mPa·s
same,viscosity,"299.97 K, 100 kPa",47.08 ± 2.9 mPa·s
same,viscosity,"300.27 K, 100 kPa",46.5 ± 2.9 mPa·s
same,viscosity,"300.58 K, 100 kPa",45.93 ± 2.8 mPa·s
same,viscosity,"300.88 K, 100 kPa",45.37 ± 2.8 mPa·s
same,viscosity,"301.18 K, 100 kPa",44.82 ± 2.8 mPa·s
same,viscosity,"301.48 K, 100 kPa",44.27 ± 2.7 mPa·s
same,viscosity,"301.79 K, 100 kPa",43.74 ± 2.7 mPa·s
same,viscosity,"302.09 K, 100 kPa",43.22 ± 2.6 mPa·s
same,viscosity,"302.39 K, 100 kPa",42.7 ± 2.6 mPa·s
same,viscosity,"302.7 K, 100 kPa",42.19 ± 2.6 mPa·s
same,viscosity,"303 K, 100 kPa",41.69 ± 2.5 mPa·s
same,viscosity,"303.15 K, 100 kPa",40.54 ± 0.51 mPa·s and 39.95 ± 1.8 mPa·s
same,viscosity,"303.15 K, 101 kPa",40.77 ± 1.7 mPa·s and 41.8 ± 0.39 mPa·s
same,viscosity,"303.61 K, 100 kPa",40.71 ± 2.5 mPa·s
same,viscosity,"303.91 K, 100 kPa",40.23 ± 2.4 mPa·s
same,viscosity,"304.21 K, 100 kPa",39.76 ± 2.4 mPa·s
same,viscosity,"304.52 K, 100 kPa",39.3 ± 2.4 mPa·s
same,viscosity,"304.82 K, 100 kPa",38.85 ± 2.3 mPa·s
same,viscosity,"305.12 K, 100 kPa",38.4 ± 2.3 mPa·s
same,viscosity,"305.42 K, 100 kPa",37.96 ± 2.3 mPa·s
same,viscosity,"305.73 K, 100 kPa",37.52 ± 2.2 mPa·s
same,viscosity,"306.03 K, 100 kPa",37.09 ± 2.2 mPa·s
same,viscosity,"306.33 K, 100 kPa",36.67 ± 2.2 mPa·s
same,viscosity,"306.64 K, 100 kPa",36.25 ± 2.2 mPa·s
same,viscosity,"306.94 K, 100 kPa",35.85 ± 2.1 mPa·s
same,viscosity,"307.24 K, 100 kPa",35.44 ± 2.1 mPa·s
same,viscosity,"307.55 K, 100 kPa",35.04 ± 2.1 mPa·s
same,viscosity,"307.85 K, 100 kPa",34.65 ± 2.1 mPa·s
same,viscosity,"308.15 K, 101 kPa",34.3 ± 0.32 mPa·s
same,viscosity,"308.15 K, 101.3 kPa",33.95 ± 0.71 mPa·s
same,viscosity,"308.76 K, 100 kPa",33.51 ± 2 mPa·s
same,viscosity,"309.06 K, 100 kPa",33.14 ± 2 mPa·s
same,viscosity,"309.36 K, 100 kPa",32.78 ± 1.9 mPa·s
same,viscosity,"309.67 K, 100 kPa",32.42 ± 1.9 mPa·s
same,viscosity,"309.97 K, 100 kPa",32.07 ± 1.9 mPa·s
same,viscosity,"310.27 K, 100 kPa",31.72 ± 1.9 mPa·s
same,viscosity,"310.58 K, 100 kPa",31.38 ± 1.8 mPa·s
same,viscosity,"310.88 K, 100 kPa",31.04 ± 1.8 mPa·s
same,viscosity,"311.18 K, 100 kPa",30.71 ± 1.8 mPa·s
same,viscosity,"311.48 K, 100 kPa",30.38 ± 1.8 mPa·s
same,viscosity,"311.79 K, 100 kPa",30.05 ± 1.8 mPa·s
same,viscosity,"312.09 K, 100 kPa",29.73 ± 1.7 mPa·s
same,viscosity,"312.39 K, 100 kPa",29.42 ± 1.7 mPa·s
same,viscosity,"312.7 K, 100 kPa",29.11 ± 1.7 mPa·s
same,viscosity,"313 K, 100 kPa",28.8 ± 1.7 mPa·s
same,viscosity,"313.15 K, 100 kPa",28 ± 0.36 mPa·s
same,viscosity,"313.15 K, 101 kPa",28.06 ± 1.2 mPa·s
same,viscosity,"313.15 K, 101.3 kPa",28.39 ± 0.59 mPa·s
same,viscosity,"313.2 K, 101.33 kPa",27.26 ± 2.9 mPa·s
same,viscosity,"313.61 K, 100 kPa",28.2 ± 1.6 mPa·s
same,viscosity,"313.91 K, 100 kPa",27.91 ± 1.6 mPa·s
same,viscosity,"314.21 K, 100 kPa",27.62 ± 1.6 mPa·s
same,viscosity,"314.52 K, 100 kPa",27.33 ± 1.6 mPa·s
same,viscosity,"314.82 K, 100 kPa",27.05 ± 1.6 mPa·s
same,viscosity,"315.12 K, 100 kPa",26.77 ± 1.6 mPa·s
same,viscosity,"315.42 K, 100 kPa",26.49 ± 1.5 mPa·s
same,viscosity,"315.73 K, 100 kPa",26.22 ± 1.5 mPa·s
same,viscosity,"316.03 K, 100 kPa",25.95 ± 1.5 mPa·s
same,viscosity,"316.33 K, 100 kPa",25.69 ± 1.5 mPa·s
same,viscosity,"316.64 K, 100 kPa",25.43 ± 1.5 mPa·s
same,viscosity,"316.94 K, 100 kPa",25.17 ± 1.4 mPa·s
same,viscosity,"317.24 K, 100 kPa",24.92 ± 1.4 mPa·s
same,viscosity,"317.55 K, 100 kPa",24.67 ± 1.4 mPa·s
same,viscosity,"318.15 K, 100 kPa",23.75 ± 0.31 mPa·s and 24.18 ± 1.4 mPa·s
same,viscosity,"318.76 K, 100 kPa",23.7 ± 1.4 mPa·s
same,viscosity,"319.06 K, 100 kPa",23.47 ± 1.3 mPa·s
same,viscosity,"319.36 K, 100 kPa",23.23 ± 1.3 mPa·s
same,viscosity,"319.67 K, 100 kPa",23 ± 1.3 mPa·s
same,viscosity,"319.97 K, 100 kPa",22.78 ± 1.3 mPa·s
same,viscosity,"320.27 K, 100 kPa",22.56 ± 1.3 mPa·s
same,viscosity,"320.58 K, 100 kPa",22.34 ± 1.3 mPa·s
same,viscosity,"320.88 K, 100 kPa",22.12 ± 1.2 mPa·s
same,viscosity,"321.18 K, 100 kPa",21.9 ± 1.2 mPa·s
same,viscosity,"321.48 K, 100 kPa",21.69 ± 1.2 mPa·s
same,viscosity,"321.79 K, 100 kPa",21.48 ± 1.2 mPa·s
same,viscosity,"322.09 K, 100 kPa",21.28 ± 1.2 mPa·s
same,viscosity,"322.39 K, 100 kPa",21.07 ± 1.2 mPa·s
